Test results taken from patent US7943616B2, “Azaindoles for inhibiting aurora2 and other kinases” (Aventis Pharmaceuticals Inc., priority 2001, dated 2011).

Row | Structure (SMILES) | melting point [°C]
1 | c1cncc(OCCCn2cc(-c3cc4nccnc4[nH]3)c3ccccc32)c1 [Example 6, 6-{1-[3-(Pyridin-3-yloxy)-propyl]-1H-indol-3-yl}-5H-pyrrolo[2,3-b]pyrazine] | 208 to 209
2 | Cn1cc(-c2cc3nccnc3[nH]2)c2cc(O)ccc21 [Example 7, 1-methyl-3-(5H-pyrrolo[2,3-b]pyrazin-6-yl)-1H-indol-5-ol] | 289 to 290
3 | Cn1cc(-c2cc3cccnc3[nH]2)c2cc(N)ccc21 [Example 18, 1-Methyl-3-(1H-pyrrolo[2,3-b]pyridin-2-yl)-1H-indol-5-ylamine] | 247 to 248
4 | CC(C)(C)c1ccc(-c2[nH]c3nccnc3c2CCC#N)cc1 [Example 23] | 215 to 216
5 | COc1ccc2[nH]cc(-c3cc4c(C(N)=O)ccnc4[nH]3)c2c1 [Example 42, 2-(5-Methoxy-1H-indol-3-yl)-1H-pyrrolo[2,3-b]pyridine-4 Carboxamide] | > 320

Results, then the compound that gave them:

Row | melting point [°C] | Structure (SMILES)
6 | 268 to 271 | COc1ccc2[nH]cc(-c3cc4nccnc4[nH]3)c2c1 [Example 11, 6-(5-methoxy-1H-indol-3-yl)-5H-pyrrolo[2,3-b]pyrazine]
7 | 187 to 189 | CC(C)(C)c1ccc(-c2[nH]c3nccnc3c2CCCO)cc1 [Example 26, 3-[6-(4-tert-Butyl-phenyl)-5H-pyrrolo[2,3-b]pyrazin-7-yl]-propan-1-ol]
8 | 183 to 184 | CCOC(=O)COc1cc(-c2cc3nccnc3[nH]2)ccc1OC [Example 27, [2-Methoxy-5-(5H-pyrrolo[2,3-b]pyrazin-6-yl)-phenoxy]acetic Acid Ethyl Ester]
